From publication PMC8750417, “Intracellular Amplifiers of Reactive Oxygen Species Affecting Mitochondria as Radiosensitizers” (Cancers, 2021) come the findings set out here.

In one series the test system is SBLF9 fibroblasts. Put plainly: Mitochondrial ROS imaging (MitoSOX), SBLF9 fibroblasts. The class given is cell-based. The settings on record: 5 µM. The method, then: (§1) The cells were re-suspended in RPMI 1640 medium containing 5% FBS, 1% L-glutamine and 1% penicillin/streptomycin (100 µL). Finally, the fluorescence of live cells (λex = 488 nm, λem = 530 nm) in the suspensions was determined by using flow cytometry (Figure […]
Figure S62. Fluorescence of DAF-FM diacetate-loaded A2780 cells treated either with 2c or the carrier. *: p<0.05, Student’s t test.
Effect of prodrug 2c on mitochondrial reactive oxygen species in representative cancer (A2780) and normal cells (SBLF9 fibroblasts) (Figure 6)
A2780 cells were seeded in of RPMI 1640 medium (500 µL) supplemented with 5% FBS, 1% L-glutamine, and 1% penicillin/streptomycin on a 35 mm imaging dish (µ- Dish 35 mm, high, ibidi GmbH, Germany) at a cell density of 80 cells/µL and allowed to attach to the surface of the dish for overnight. […]
The fluorescence images were taken with a Zeiss Axio Vert.A1 fluorescence microscope […]
4x10^4 cells per well. […] Cell viability was assessed by quantification of ATP (CellTiter Glo®, Promega) 48 hours after drug application.
Luminescence was measured on a Tecan Infinite F200 Microplate Reader. Viability was calculated as % of solvent (DMSO) treated control. […]

The next series concerns A2780 cells. Put plainly: Generation of nitric oxide (DAF-FM diacetate), A2780. The class given is cell-based, human. The settings on record: 2 h. The method, then: with CO2 (5%) at 37 °C for 2 h. Next, the cells were detached from the culture dish using trypsin/EDTA (0.025%/0.01%, v/v, 200 µL). The cells were re-suspended in RPMI 1640 medium containing 5% FBS, 1% L-glutamine and 1% penicillin/streptomycin (200 µL).
Finally, the fluorescence of live cells (λex = 488 nm, λem = 530 nm) in the suspensions was determined by using flow cytometry (Figure 4C).
Figure S61. Representative flow cytometric histograms used for setting up Figure 4C.
Generation of nitric oxide in A2780 cells
A2780 cells were seeded into 96 well culture plates at the same cell concentration and in the same medium as applied for the assay for monitoring mROS described above. On the day of the experiment, the cells were washed twice with DPBS buffer and the medium was replaced with HBSS (100 μL). […]
as §1
Figure S62. Fluorescence of DAF-FM diacetate-loaded A2780 cells treated either with 2c or the carrier. *: p<0.05, Student’s t test. […]

Take `CC1(C)OB(c2ccc(COC(=O)N(Cc3cn(Cc4ccc(Cn5cc(Cc6ccccc6)nn5)cc4)nn3)[c-]3cccc3)cc2)OC1(C)C.[Fe+2].c1cc[cH-]c1` [2c]: the “mROS level in normal cells” value in the series on SBLF9 fibroblasts is recorded as “only a slight increase of mROS level”. The “level of NO vs carrier” value with A2780 cells was “higher than that in A2780 cells treated with DMSO (carrier) only”.
